Measurements: patent US10723706B2, “Perk inhibitors and uses thereof in treating diseases associated with aggregation-prone proteins” (Ramot at Tel-Aviv University Ltd., priority 2016, dated 2020)
“Also recorded” adds a separate entry of the source.

What was measured:
R6/2 transgenic mice [1] = test: Blood glucose levels in R6/2 HD model and WT mice; type: in vivo, mouse
Procedure: Animals were treated for 4 weeks starting at 4 weeks of age with 1 mg/ml MK-28 or with vehicle (DMSO/PEG400 1:1), delivered using Alzet pumps. […] N=13 TG, 13 TG+MK28, 16 WT, 15 WT+MK28, 15 None.
The HD mouse model used was the R6/2 transgenic mice model B6CBA-R6/2 (CAG 160) Jackson Lab USA. R6/2 mice express only the exon 1 of the human Htt gene, including 150 CAG repeats driven by the human Htt promoter directly influencing the transgene expression levels and thereby the development of HD-like pathology. Out of all the existing mouse models of HD, the R6/2 mouse is one that develops symptoms the most rapidly and has the most widespread occurrence of Htt inclusions in the brain. Furthermore, these lines are the most widely used in therapeutic trials. In these animals, the initial signs of motor symptoms commence around 3 weeks of age. […] While R6/2 mice are initially hyperactive, they gradually reduce their motor activity and become hypoactive around 8 weeks of age. Their motor function and coordination progressively deteriorate, and can be detected as a reduction in the time they can stay on a rotating rod, the so-called Rotarod. […]
Alzet pumps were implanted at 4 weeks of age and MK-28 was administered at 1 mg/kg with continuous dosing for 28 days. […] Vocalization tests were also performed and survival was assessed. […]

STHdhQ111/111 cells [2] = test: Rescue of cells incubated in DMEM without serum and without Tun, PI cell cycle FACS; type: cell-based, murine; details: 48 hours in DMEM without serum and without Tun
Procedure: (§1) STHdhQ7/7 and STHdhQ111/111 cells were grown as described in Leitman et al. [PLoS One 2014, 9(3):e90803].
(§2) After the indicated treatment times in full medium or in DMEM without serum, cells were incubated with propidium iodide (PI) solution ([…]) and read by flow cytometry as described in Leitman et al. [PLoS One 2014, 9(3):e90803]. Cells in sub-G0/G1 were counted as apoptotic/dead cells.
(§3) The activity of the novel inhibitors, compared to A4, in preventing cytotoxicity induced by pathogenic Htt, was then tested. A stable murine striatal cell line expressing full-length polyQ-expanded Htt, STHdhQ^111/111, was used.

[3] = Pharmacokinetics and blood brain barrier penetration, LC/MS/MS; type: in vivo, mouse; details: WT mice, 10 mg/kg IP
Procedure: FIG. 5 Analysis of Pharmacokinetics (PK) and blood brain barrier (BBB) penetration was done in WT mice using a method based on LC/MS/MS.
Pharmacokinetics (PK) and blood brain barrier (BBB) penetration were analyzed in WT mice.

wild type (WT) mice = test: Toxicity in wild type mice, continuous subcutaneous dosing by Alzet pump; type: in vivo, mouse; details: 6 mg/kg for 2 weeks
STHdhQ111/111 cells [4] = test: Rescue from UPR-induced cell death (tunicamycin), PI cell cycle FACS, sub-G0/G1 fraction; type: cell-based
Procedure: as §1, §2, §3

[5] = Weight evaluation after pump implantation; type: in vivo, mouse; details: TG and WT mice, 7 weeks after pump implantation, 1 mg/kg for 28 days
Procedure: (§4) For the therapeutic assessment of MK-28 delivery, Alzet pumps model 1004, with a rate of 0.11 μl/hour and 28 days compound delivery were used. Five groups of mice were studied: (1) Transgenic (TG) treated with MK-28, (2) TG without treatment (pumps with vehicle), (3) Wild-type (WT) treated with MK-28, (4) WT without treatment (pumps with vehicle), (5) WT without pumps.
Alzet pumps were implanted at 4 weeks of age and MK-28 was administered at 1 mg/kg with continuous dosing for 28 days. This concentration is in a typical clinical dose range. The mice's motor function and coordination were tested by Rotarod, and limb clasping, ledge, gait and kyphosis were also tested. Vocalization tests were also performed and survival was assessed. Tests were performed in two independent blind experiments.

[6] = system: betaTC-tet pancreatic islet beta-cell line; test: Toxicity in pancreatic beta cells; type: cell-based, mouse
Procedure: MK-28 toxicity was tested in pancreatic beta cells, the type of cell that is most sensitive when ER stress response pathways are affected. A conditionally transformed mouse pancreatic islet beta-cell line (betaTC-tet), such as described by Efrat [Ann NY Acad Sci 1999, 875:286-293], was used. These cells produce high amounts of insulin, resulting in a high protein load in the ER, making them very sensitive to ER stress and other stimuli, such as cytokine effects. Compromising any of the UPR branches leads to cytotoxicity in these cells. MK-28 was compared to the ER stressor tunicamycin (Tun).

R6/2 transgenic mice [7] = test: Rotarod test in R6/2 HD model mice; type: in vivo, mouse; details: 1 mg/kg continuous for 28 days
Procedure: Motor activity was assessed by the rotarod test using the San Diego Instrument, Rotor-Rod (San Diego Instruments, CA, USA) (0-25 RPM). R6/2 mice and controls were tested every week after pump transplantation. Each test consisted of 3 consecutive measurements of 5 minutes on 4 rpm, 60 minutes of rest, 3 times 0-40 rpm. The latency to fall was recorded.
as §4
Alzet pumps were implanted at 4 weeks of age and MK-28 was administered at 1 mg/kg with continuous dosing for 28 days. This concentration is in a typical clinical dose range. […] Vocalization tests were also performed and survival was assessed. […]
Rotarod analysis was performed by assessing the maximum performance of each animal during three consecutive trials at different time points. The analysis evaluated the motor behavior of animals starting one week after the pump implantation (equivalent to the mice fifth week of life) and ending by seven weeks after first MK-28 delivery.

**Q.** For `CN(/N=C\c1ccc(O)c(O)c1)c1nc(-c2ccccc2)cc(-c2ccccc2)n1` [Compound 3, 2-{N-methyl-N′-(3,4-dihydroxybenzylidene)hydrazinyl}-4,6-diphenylpyrimidine], which “blood glucose levels in TG mice” value (R6/2 transgenic mice [1]; R6/2 TG mice, 4 weeks treatment by Alzet pump from 4 weeks of age) is on record?
**A.** reduced

**Q.** And the “blood glucose levels in WT mice” value (R6/2 transgenic mice [1]; WT mice, 4 weeks treatment by Alzet pump, listed as MK-28)?
**A.** no effect; also recorded: did not affect glucose levels

**Q.** And the “protective (rescue) effect without ER stressor” value (STHdhQ111/111 cells [2])?
**A.** strong protective effect, in the low micromolar range

**Q.** And the “protective (rescue) effect without ER stressor” value (STHdhQ111/111 cells [2]; listed as MK-28)?
**A.** strong rescue effect

**Q.** What about the “BBB penetration, peak brain concentration” value ([3]; brain) of the same molecule?
**A.** 57 ng/mL

**Q.** What about the T1/2 in brain ([3]; brain) of the same molecule?
**A.** 80 min

**Q.** What about the “time of peak brain concentration” value ([3]; brain) of the same molecule?
**A.** 40 min

**Q.** And the T1/2 in plasma ([3]; plasma)?
**A.** 30 min

**Q.** What about the peak plasma concentration ([3]; plasma) of the same molecule?
**A.** 105 ng/mL

**Q.** What about the “time of peak plasma concentration” value ([3]; plasma) of the same molecule?
**A.** 40 min

**Q.** And the Kp at 40 minutes ([3]; mouse, brain, read-out: BBB penetration peak as percent of the concentration in plasma)?
**A.** > 0.5

**Q.** What about the “toxic effects in WT mice” value (wild type (WT) mice) of the same molecule?
**A.** no toxic effects were observed

**Q.** What about the “rescue from UPR-induced cell death (cytotoxicity)” value (STHdhQ111/111 cells [4]; Tun for 48 hours) of the same molecule?
**A.** significantly more potent than A4

**Q.** What about the “fold lower IC50 than A4 for inhibition of cytotoxicity” value (STHdhQ111/111 cells [4]; additional ER stress caused by tunicamycin) of the same molecule?
**A.** > 3 fold

**Q.** And the weight versus vehicle [5]?
**A.** no significant differences

**Q.** What about the “toxicity in pancreatic beta cells” value [6] of the same molecule?
**A.** very low toxicity

**Q.** And the “Rotarod motor performance of TG mice versus untreated TG” value (R6/2 transgenic mice [7]; R6/2 TG mice, p<0.05, listed as MK-28, 1 mg/kg)?
**A.** significant improvement in general motor performance; also recorded: significant improvement in motor function

**Q.** What about the “Rotarod motor performance of WT mice” value (R6/2 transgenic mice [7]; WT mice) of the same molecule?
**A.** no compromised motor performance
